The subject of the test is nude mice, LOX melanoma ip, survival T/C. In words: NCI In Vivo Anticancer Drug Screen. Data for tumor model Human Amelanotic Melanoma (LOX) (intraperitoneal) in NU/NU BALB/C (nude) mice. The settings on record: endpoint: median survival time, higher = longer survival. On the procedure: The antitumor activity of compounds was measured in mice bearing transplantable tumors. Survival or tumor size were measured and the results are expressed as the measurement made in the treated group (T) divided by the measurement made in the vehicle treated control group (C). The tumor model used in this assay is Human Amelanotic Melanoma (LOX) (intraperitoneal) in NU/NU BALB/C (nude) mice

Several values for one entry are separate records, joined by “and”; a condition that tells them apart may be missing. Equal values may be shown once. Inconclusive results and toxic doses are left out. Starred links: 1 amine or outer side, 2 acyl side, 3 side chain; linkers in the order of their positions; H or OH if unused. Positions of bridges follow the written chain, without caps; N, C: chain ends. Non-standard residues stand in square brackets, D forms with d. Residues, ends and D or L forms follow the SMILES beside them. Chains are numbered I, II in the order given. Actinocin(9to1) = Cc1c2oc3c(C)ccc(C(=O)[*:1])c3nc-2c(C(=O)[*:2])c(N)c1=O; aThr = C[C@H](O)[C@H](N)C(=O)O; NMeV = CN[C@H](C(=O)O)C(C)C; Sar = CNCC(=O)O

For `CC[C@@]1(O)C(=O)OCc2c1cc1n(c2=O)Cc2cc3c(N)cccc3nc2-1`, the T/C (dose: 0.5 mg/kg/injection, schedule: Q04DX003 (ip), vehicle: saline with Tween-80) is 213 % of control; the T/C (dose: 0.86 mg/kg/injection, schedule: Q04DX003 (ip), vehicle: saline with Tween-80) was 314 % of control; the T/C (dose: 1.0 mg/kg/injection, schedule: Q04DX003 (ip), vehicle: saline with Tween-80) was 327 % of control; the T/C (dose: 1.44 mg/kg/injection, schedule: Q04DX003 (ip), vehicle: saline with Tween-80) is 314 % of control; the T/C (dose: 2.0 mg/kg/injection, schedule: Q04DX003 (ip), vehicle: saline with Tween-80) was 327 % of control; the T/C (dose: 2.4 mg/kg/injection, schedule: Q04DX003 (ip), vehicle: saline with Tween-80) is 314 % of control. Also, the T/C (dose: 4.0 mg/kg/injection, schedule: Q04DX003 (ip), vehicle: saline with Tween-80) is 314 % of control and 327 % of control.
With `Cc1cc(Br)c2nsnc2c1[N+](=O)[O-]`, the T/C (dose: 75.0 mg/kg/injection, schedule: Q04DX003 (ip), vehicle: saline with Tween-80) was 112 % of control; the T/C (dose: 150.0 mg/kg/injection, schedule: Q04DX003 (ip), vehicle: saline with Tween-80) was 103 % of control; the T/C (dose: 300.0 mg/kg/injection, schedule: Q04DX003 (ip), vehicle: saline with Tween-80) was 112 % of control; the T/C (dose: 600.0 mg/kg/injection, schedule: Q04DX003 (ip), vehicle: saline with Tween-80) is 124 % of control; the T/C (dose: 1200.0 mg/kg/injection, schedule: Q04DX003 (ip), vehicle: saline with Tween-80) was 114 % of control.
Take `C/C(=N\NC(=S)N1CCC1)c1ccccn1`: the T/C by setting is: (dose: 3.13 mg/kg/injection, schedule: Q04DX003 (ip), vehicle: other) 99 % of control; (dose: 6.25 mg/kg/injection, schedule: Q04DX003 (ip), vehicle: other) 96 % of control; (dose: 12.5 mg/kg/injection, schedule: Q04DX003 (ip), vehicle: other) 95 % of control; (dose: 25.0 mg/kg/injection, schedule: Q04DX003 (ip), vehicle: other) 100 % of control.
Turning to `Cc1c2oc3c(C)ccc(C(=O)N[C@@H]4C(=O)N[C@H](C(C)C)C(=O)N5CCC[C@H]5C(=O)N(C)CC(=O)N(C)[C@@H](C(C)C)C(=O)O[C@H]4C)c3nc-2c(C(=O)N[C@@H]2C(=O)N[C@H](C(C)C)C(=O)N3CCC[C@H]3C(=O)N(C)CC(=O)N(C)[C@@H](C(C)C)C(=O)O[C@H]2C)c(N)c1=O` (I: [aThr][dV]P[Sar][NMeV] / II: [aThr][dV]P[Sar][NMeV]; ester I:1-I:C, II:1-II:C; linker I:N-II:N via Actinocin(9to1)), the T/C is, setting by setting: (dose: 0.07 mg/kg/injection, schedule: Q04DX003 (ip), vehicle: saline) 185 % of control; (dose: 0.13 mg/kg/injection, schedule: Q01DX001 (ip), vehicle: saline) 151 % of control; (dose: 0.13 mg/kg/injection, schedule: Q04DX003 (ip), vehicle: saline) 269 % of control; (dose: 0.25 mg/kg/injection, schedule: Q01DX001 (ip), vehicle: saline) 153 % of control; (dose: 0.25 mg/kg/injection, schedule: Q04DX003 (ip), vehicle: saline) 337 % of control; (dose: 0.5 mg/kg/injection, schedule: Q01DX001 (ip), vehicle: saline) 264 % of control. Also, the T/C (dose: 0.5 mg/kg/injection, schedule: Q04DX003 (ip), vehicle: saline) was 337 % of control; the T/C (dose: 1.0 mg/kg/injection, schedule: Q01DX001 (ip), vehicle: saline) is 337 % of control; the T/C (dose: 1.3 mg/kg/injection, schedule: Q04DX003 (ip), vehicle: saline) was 87 % of control; the T/C (dose: 0.13 micrograms/kg/injection, schedule: Q01DX005 (ip), vehicle: saline) is 162 % of control; the T/C (dose: 0.13 micrograms/kg/injection, schedule: Q01DX015 (ip), vehicle: saline) is 207 % of control; the T/C (dose: 25.0 micrograms/kg/injection, schedule: Q01DX005 (ip), vehicle: saline) is 191 % of control. The T/C by setting is: (dose: 25.0 micrograms/kg/injection, schedule: Q01DX015 (ip), vehicle: saline) 337 % of control; (dose: 50.0 micrograms/kg/injection, schedule: Q01DX005 (ip), vehicle: saline) 337 % of control; (dose: 50.0 micrograms/kg/injection, schedule: Q01DX015 (ip), vehicle: saline) 337 % of control; (dose: 100.0 micrograms/kg/injection, schedule: Q01DX005 (ip), vehicle: saline) 337 % of control; (dose: 100.0 micrograms/kg/injection, schedule: Q01DX015 (ip), vehicle: saline) 337 % of control.
In the case of `Cc1c(O)/c(=C\O)c2nc3c(=O)ccc(C(=O)NCCN(C)C)c3[nH]c2c1=O`, the T/C (dose: 25.0 mg/kg/injection, schedule: Q04DX003 (ip), vehicle: water) is 95 % of control and 97 % of control; the T/C (dose: 50.0 mg/kg/injection, schedule: Q04DX003 (ip), vehicle: water) is 104 % of control and 98 % of control; the T/C (dose: 86.4 mg/kg/injection, schedule: Q04DX003 (ip), vehicle: water) is 95 % of control; the T/C (dose: 100.0 mg/kg/injection, schedule: Q04DX003 (ip), vehicle: water) was 101 % of control and 104 % of control; the T/C (dose: 144.0 mg/kg/injection, schedule: Q04DX003 (ip), vehicle: water) was 99 % of control.
Turning to `[N-]=[N+]=[N-]`, the T/C was 99 % of control (dose: 1.5 mg/kg/injection, schedule: Q04DX003 (ip), vehicle: water); 104 % of control (dose: 3.0 mg/kg/injection, schedule: Q04DX003 (ip), vehicle: water); 89 % of control (dose: 12.0 mg/kg/injection, schedule: Q04DX003 (ip), vehicle: water); 104 % of control (dose: 24.0 mg/kg/injection, schedule: Q04DX003 (ip), vehicle: water).
Regarding `COc1ccc(/C=C\c2cc(OC)c(OC)c(OC)c2)c(O)c1O`, the T/C is, setting by setting: (dose: 6.25 mg/kg/injection, schedule: Q04DX003 (ip), vehicle: saline + Tween-80 + alcohol) 97 % of control; (dose: 12.5 mg/kg/injection, schedule: Q04DX003 (ip), vehicle: saline + Tween-80 + alcohol) 110 % of control; (dose: 25.0 mg/kg/injection, schedule: Q04DX003 (ip), vehicle: saline + Tween-80 + alcohol) 124 % of control.
Consider `COC12[C@@H]3N[C@@H]3CN1C1=C(C(=O)C(NCCSSCCNC3=C(C)C(=O)C4=C(C3=O)C(COC(N)=O)[C@]3(OC)C5N[C@@H]5CN43)=C(C)C1=O)[C@@H]2COC(N)=O` (stereo partly specified), for which the T/C reads like this: (dose: 1.57 mg/kg/injection, schedule: Q04DX003 (ip), vehicle: DMSO) 121 % of control; (dose: 12.5 mg/kg/injection, schedule: Q04DX003 (ip), vehicle: DMSO) 331 % of control.
Take `CCCCCC1c2cc(O)ccc2OC1N1CCOCC1` (stereo unspecified): the T/C runs as follows: (dose: 25.0 mg/kg/injection, schedule: Q04DX003 (ip), vehicle: saline with Tween-80) 111 % of control; (dose: 50.0 mg/kg/injection, schedule: Q04DX003 (ip), vehicle: saline with Tween-80) 100 % of control; (dose: 200.0 mg/kg/injection, schedule: Q04DX003 (ip), vehicle: saline with Tween-80) 86 % of control.
In the case of `COc1c2c(c(O)c3c4c(c(C)cc13)C1OC3(C(OC)OC5CC(C)(O)C(OC6CC(C)(O)C(O)C(C)O6)C(C)O5)OC1C(OC)(O4)C31CO1)C(=O)C(O)CC2OC1CC(C)(O)C(OC(C)=O)C(C)O1` (stereo unspecified), the T/C by setting is: (dose: 12.5 micrograms/kg/injection, schedule: Q04DX003 (ip), vehicle: saline) 261 % of control; (dose: 25.0 micrograms/kg/injection, schedule: Q04DX003 (ip), vehicle: saline) 181 % of control; (dose: 50.0 micrograms/kg/injection, schedule: Q04DX003 (ip), vehicle: saline) 107 % of control.
With `COc1cc2c(c(OC)c1OC)-c1ccc(OC)c(=O)cc1[C@@H](N)CC2`, the T/C by setting is: (dose: 3.75 mg/kg/injection, schedule: Q04DX003 (ip), vehicle: Klucel (hydroxypropylcellulose) (HPC)) 102 % of control; (dose: 7.5 mg/kg/injection, schedule: Q04DX003 (ip), vehicle: Klucel (hydroxypropylcellulose) (HPC)) 104 % of control; (dose: 15.0 mg/kg/injection, schedule: Q04DX003 (ip), vehicle: Klucel (hydroxypropylcellulose) (HPC)) 108 % of control and 113 % of control and 116 % of control; (dose: 30.0 mg/kg/injection, schedule: Q04DX003 (ip), vehicle: Klucel (hydroxypropylcellulose) (HPC)) 113 % of control and 114 % of control and 115 % of control; (dose: 60.0 mg/kg/injection, schedule: Q04DX003 (ip), vehicle: Klucel (hydroxypropylcellulose) (HPC)) 114 % of control; (dose: 120.0 mg/kg/injection, schedule: Q04DX003 (ip), vehicle: Klucel (hydroxypropylcellulose) (HPC)) 163 % of control.
Take `NC(N)=NS(=O)(=O)c1ccc(NCc2c3ccccc3nc3ccccc23)cc1`: the T/C by setting is: (dose: 600.0 mg/kg/injection, schedule: Q04DX003 (ip), vehicle: Klucel (hydroxypropylcellulose) (HPC)) 166 % of control; (dose: 1200.0 mg/kg/injection, schedule: Q04DX003 (ip), vehicle: Klucel (hydroxypropylcellulose) (HPC)) 155 % of control.
